Laboratory results as given in patent US20190038759A1 (priority 2017, published 2019).
In brackets after ≈: the same amount, converted by molar mass. Like-named read-outs stand apart in the source and are kept apart here. Non-standard residues stand in square brackets, D forms with d. Residues, ends and D or L forms follow the SMILES beside them. *: point of attachment. Propyl(3-guanidino) = N=C(N)NCCC*; Hyp = O=C(O)[C@@H]1C[C@@H](O)CN1; Isobutyl = CC(C)C*

Legend:
Salmonella enteritidis [1] = tested on: Salmonella enteritidis
[2] = tested on: Mycobacterium tuberculosis H37Ra
[3] = tested on: LPS-induced activation of the LAL enzyme (Limulus amoebocyte lysate); test: LPS binding: inhibition of LPS-induced activation of LAL enzyme; assay type: biochemical; details: at 10 (unit not given)
[4] = tested on: intracellular pathogens in J774A.1 cells; assay type: cell-based; details: infected J774A.1 macrophages
interleukin-6 (IL-6) = test: Anti-inflammatory effect on LPS stimulated macrophages, ELISA; assay type: cell-based; details: 10 μM, LPS 150 ng/ml, J774A.1, six hours
Procedure: (§1) The anti-inflammatory effect of compounds on LPS stimulated macrophages, J774A.1 cells was investigated. Next, the cells were stimulated with LPS (150 ng/ml final concentration) in the presence of 10 μM of compounds. Cells that were stimulated with LPS alone and untreated cells served as controls. Cells were incubated for six hours at 37° C. and supernatants from each treatment were collected and stored at −20° C. until use. Cytokine detection of tumor necrosis factor-α (TNF-α) and interleukin-6 (IL-6) in supernatants was done using ELISA as described before following the manufacturer's instructions^24,25. Cytokine levels were expressed as percent change relative to the LPS-stimulated control, using triplicate samples for each treatment condition.

[5] = tested on: tumor necrosis factor-α (TNF-α); test: as above; assay type: cell-based; details: 10 μM, LPS 150 ng/ml, J774A.1, six hours
Procedure: as §1

[6] = tested on: S. aureus (ATCC 6538) biofilm; test: Disruption of established biofilms, crystal violet; assay type: cell-based
Procedure: (§2) The compounds of the present disclosure were examined for their ability to disrupt bacterial biofilms using the microtiter dish biofilm formation assay. Briefly, overnight cultures of S. aureus (ATCC 6538) and S. epidermidis (ATCC 35984) were diluted 1:100 in TSB supplemented with 1% glucose. Overnight cultures of P. aeruginosa PAO1 and A. baumannii ATCC BAA-1605 were diluted 1:100 in M63 minimal medium supplemented with magnesium sulfate, glucose and casamino acids. Bacterial suspensions were incubated in 96-well plates at 37° C. for 24 hours. After removing media, wells were rinsed with PBS to remove planktonic bacteria before re-filling wells with fresh media. Compounds were added at specific concentrations and plates were incubated at 37° C. for 24 hours. After incubation, wells were washed and biofilms were stained with 0.5% (w/v) crystal violet for 30 minutes. The dye was solubilized with ethanol (95%) and the biofilm mass was quantified at OD595. Experiments were done in triplicate and repeated twice independently.

[7] = tested on: P. aeruginosa PAO1 biofilm; test: Disruption of established biofilms, crystal violet; assay type: cell-based; details: 32 μM
Procedure: as §2

[8] = tested on: S. epidermidis ATCC 35984 biofilm; test: Disruption of established biofilms, crystal violet; assay type: cell-based; details: S. epidermidis mature biofilm, 64 μM
Procedure: as §2

[9] = tested on: A. baumannii ATCC BAA-1605 biofilm; test: Disruption of established biofilms, crystal violet; assay type: cell-based; details: 32 μM
Procedure: as §2

Mycobacterium smegmatis [10] = tested on: Mycobacterium smegmatis
Shigella flexneri [11] = tested on: Shigella flexneri
Brucella abortus [12] = tested on: Brucella abortus
[13] = tested on: Mycobacterium tuberculosis H37Ra; test: microbe, parasite or virus in culture
P. aeruginosa PAO1 = test: MIC against clinical and drug-resistant isolates; assay type: cell-based; details: Pseudomonas aeruginosa; Table 3, P. aeruginosa PAO1; read-out: Minimum inhibitory concentration (MIC)
Brucella abortus [14] = test: microbe, parasite or virus in culture
[15] = tested on: Escherichia coli (ATCC 25922); test: In vitro antimicrobial activity (MIC), OD-based growth; details: ATCC25922
[16] = tested on: Colistin-resistant P. aeruginosa 1109; test: microbe, parasite or virus in culture; assay type: cell-based; details: Table 3, colistin-resistant P. aeruginosa 1109, read-out: Minimum inhibitory concentration (MIC)
[17] = tested on: S. epidermidis (ATCC 35984); test: MIC, biofilm-forming clinical isolate, broth microdilution; assay type: cell-based; details: Staphylococcus epidermidis, ATCC35984
Salmonella enteritidis [18] = test: microbe, parasite or virus in culture; details: Salmonella enterica
K. pneumoniae BAA-1706 = test: MIC against clinical and drug-resistant isolates; assay type: cell-based; details: Klebsiella pneumoniae, BAA1706; Table 3, K. pneumoniae BAA-1706; read-out: Minimum inhibitory concentration (MIC)
C. elegans = details: 50 μM
A. baumannii BAA-1605 = test: MIC against clinical and drug-resistant isolates; assay type: cell-based; details: Acinetobacter baumannii, BAA1605; Table 3, A. baumannii BAA-1605; read-out: Minimum inhibitory concentration (MIC)
Mycobacterium smegmatis [19] = test: microbe, parasite or virus in culture; details: Mycolicibacterium smegmatis
[20] = tested on: Staphylococcus aureus (ATCC 25923); test: In vitro antimicrobial activity (MIC), OD-based growth; details: ATCC25923
Shigella flexneri [21] = test: microbe, parasite or virus in culture
[22] = tested on: Vancomycin-resistant E. faecium ATCC 700221; test: MIC against clinical and drug-resistant isolates; assay type: cell-based; details: Enterococcus faecium, ATCC700221; Table 3, vancomycin-resistant E. faecium ATCC 700221; read-out: Minimum inhibitory concentration (MIC)
S. aureus (ATCC 6538) = test: MIC, biofilm-forming clinical isolate, broth microdilution; assay type: cell-based; details: Staphylococcus aureus, ATCC6538
[23] = tested on: Methicillin-resistant S. aureus USA400; test: MIC against clinical and drug-resistant isolates; assay type: cell-based; details: Staphylococcus aureus; Table 3, MRSA USA400; read-out: Minimum inhibitory concentration (MIC)
E. coli (ATCC 25922) = assay type: cell-based; details: at five times MIC

## CC(C)CO[C@@H]1C[C@@H](C(=O)N2C[C@H](OCCCNC(=N)N)C[C@H]2C(=O)N2C[C@H](OCCCNC(=N)N)C[C@H]2C(=O)N2C[C@H](OCC(C)C)C[C@H]2C(=O)N2C[C@H](OCCCNC(=N)N)C[C@H]2C(=O)N2C[C@H](OCCCNC(=N)N)C[C@H]2C(=O)N2C[C@H](OCC(C)C)C[C@H]2C(=O)N2C[C@H](OCCCNC(=N)N)C[C@H]2C(=O)N2C[C@H](OCCCNC(=N)N)C[C@H]2C(=O)N2C[C@H](OCC(C)C)C[C@H]2C(=O)N2C[C@H](OCCCNC(=N)N)C[C@H]2C(=O)N2C[C@H](OCCCNC(=N)N)C[C@H]2C(=O)N2C[C@H](OCC(C)C)C[C@H]2C(N)=O)N(C(=O)CN)C1 [Example P14LRR] (H-G[Hyp](Isobutyl)[Hyp](Propyl(3-guanidino))[Hyp](Propyl(3-guanidino))[Hyp](Isobutyl)[Hyp](Propyl(3-guanidino))[Hyp](Propyl(3-guanidino))[Hyp](Isobutyl)[Hyp](Propyl(3-guanidino))[Hyp](Propyl(3-guanidino))[Hyp](Isobutyl)[Hyp](Propyl(3-guanidino))[Hyp](Propyl(3-guanidino))[Hyp](Isobutyl)-NH2; N-terminus assumed)
Salmonella enteritidis [1]
  MIC: 32 µM (≈ 83.8 µg/mL)
[2]
  MIC: 16 µM (≈ 41.9 µg/mL)
[3]
  inhibition of the LAL enzyme: 71.2%±5
[4]
  clearance of intracellular bacteria: neither kanamycin nor P14LRR is capable of effectively clearing intracellular bacteria
interleukin-6 (IL-6)
  decrease of IL-6 levels: 81.92%±0.78
[5]
  decrease of TNF-α levels: 68.4%±5.43
In vivo
  viability at 72 h, 50 µM: > 90%
[6]; S. aureus mature (24 hour) biofilm, 1 μM
  disruption of biofilm mass: not effective
[6]; S. aureus mature biofilm, 8 μM
  disruption of biofilm mass: not effective
[7]
  disruption of biofilm: ineffective
[8]
  disruption of biofilm mass: approximately 50%
[9]
  reduction of biofilm mass: 30%
Mycobacterium smegmatis [10]
  MIC: 8 µM (≈ 20.9 µg/mL)
Shigella flexneri [11]
  MIC: 8 µM (≈ 20.9 µg/mL)
Brucella abortus [12]
  MIC: 16 µM (≈ 41.9 µg/mL)

## NC[C@H]1O[C@H](O[C@H]2[C@H](O)[C@@H](O[C@H]3O[C@H](CO)[C@@H](O)[C@H](N)[C@H]3O)[C@H](N)C[C@@H]2N)[C@H](O)[C@@H](O)[C@@H]1O [kanamycin]
[13]
  MIC: 2 µM (≈ 0.969 µg/mL)
P. aeruginosa PAO1
  MIC: > 256 µM
Brucella abortus [14]
  MIC: 4 µM (≈ 1.94 µg/mL)
[15]
  MIC: 2 µM (≈ 0.969 µg/mL)
[16]; Pseudomonas aeruginosa
  MIC: > 256 µM
[17]; Table 2, S. epidermis clinical isolate that forms biofilms, read-out: MIC
  MIC: > 128 µM
[17]; Table 3, S. epidermidis ATCC 35984, read-out: Minimum inhibitory concentration (MIC)
  MIC: > 256 µM
interleukin-6 (IL-6)
  decrease of IL-6 levels: 10%±3.30
[5]
  decrease of TNF-α levels: 11.41%±4.5
Salmonella enteritidis [18]
  MIC: 16 µM (≈ 7.75 µg/mL)
K. pneumoniae BAA-1706
  MIC: 256 µM (≈ 124 µg/mL)
C. elegans; glp-4(bn2) I, sek-1(km4), Caenorhabditis elegans, in vivo, 3 days
  viability of C. elegans: > 90%
A. baumannii BAA-1605
  MIC: 128 µM (≈ 62 µg/mL)
Mycobacterium smegmatis [19]
  MIC: 8 µM (≈ 3.88 µg/mL)
[6]; S. aureus mature biofilm, 8 μM
  disruption of biofilm mass: approximately 50%
[20]
  MIC: 2 µM (≈ 0.969 µg/mL)
Shigella flexneri [21]
  MIC: 2 µM (≈ 0.969 µg/mL)
[22]
  MIC: > 256 µM
S. aureus (ATCC 6538); Table 2, S. aureus clinical isolate that forms biofilms, read-out: MIC
  MIC: 4 µM (≈ 1.94 µg/mL)
S. aureus (ATCC 6538); Table 3, S. aureus ATCC 6538, read-out: Minimum inhibitory concentration (MIC)
  MIC: 2 µM (≈ 0.969 µg/mL)
[23]
  MIC: 4 µM (≈ 1.94 µg/mL)

## CC(=O)NC[C@H]1CN(c2ccc(N3CCOCC3)c(F)c2)C(=O)O1 [linezolid]
[6]; S. aureus mature biofilm, 8 μM
  disruption of biofilm mass: approximately 50%

## CC[C@H](C)[C@H](NC(=O)CN)C(=O)NCC(=O)N[C@@H](C)C(=O)N[C@H](C(=O)N[C@@H](CC(C)C)C(=O)N[C@@H](CCCCN)C(=O)N[C@H](C(=O)N[C@@H](CC(C)C)C(=O)N[C@H](C(=O)N[C@H](C(=O)NCC(=O)N[C@@H](CC(C)C)C(=O)N1CCC[C@H]1C(=O)N[C@@H](C)C(=O)N[C@@H](CC(C)C)C(=O)N[C@H](C(=O)N[C@@H](CO)C(=O)N[C@@H](Cc1c[nH]c2ccccc12)C(=O)N[C@H](C(=O)N[C@@H](CCCCN)C(=O)N[C@@H](CCCNC(=N)N)C(=O)N[C@@H](CCCCN)C(=O)N[C@@H](CCCNC(=N)N)C(=O)N[C@@H](CCC(N)=O)C(=O)N[C@@H](CCC(N)=O)C(N)=O)[C@@H](C)CC)[C@@H](C)CC)[C@@H](C)O)[C@@H](C)O)C(C)C)C(C)C [melittin]
C. elegans; after 3 days of treatment
  viability of C. elegans: no live worms
E. coli (ATCC 25922)
  release of beta-galactosidase from E. coli: substantial level of release

## CN[C@H](CC(C)C)C(=O)N[C@H]1C(=O)N[C@@H](CC(N)=O)C(=O)N[C@H]2C(=O)N[C@H]3C(=O)N[C@H](C(=O)N[C@H](C(=O)O)c4cc(O)cc(O)c4-c4cc3ccc4O)[C@H](O)c3ccc(c(Cl)c3)Oc3cc2cc(c3O[C@@H]2O[C@H](CO)[C@@H](O)[C@H](O)[C@H]2O[C@H]2C[C@](C)(N)[C@H](O)[C@H](C)O2)Oc2ccc(cc2Cl)[C@H]1O [vancomycin]
[6]; S. aureus mature biofilm, 8 μM
  disruption of biofilm mass: approximately 50%

## colistin
[3]
  inhibition of the LAL enzyme: 79.76%±4.6
[16]
  MIC: 128 µM
interleukin-6 (IL-6)
  decrease of IL-6 levels: 95.04%±0.56
[5]
  decrease of TNF-α levels: 97.53%±0.32
